± gives the expanded uncertainty stated by the source.
Settings: Liquid, Vibrating tube method

COC [dimethyl ether]
mass density [kg/m3]
Settings | 293.84 K | 303.45 K | 313.18 K | 323 K | 332.83 K | 343.01 K | 353 K | 362.91 K | 372.94 K
1000 kPa | 669.27 ± 1.3 | 653.54 ± 1.3 | – | – | – | – | – | – | –
3000 kPa | 673.21 ± 1.3 | 657.94 ± 1.3 | 641.72 ± 1.4 | 624.46 ± 1.4 | 605.7 ± 1.5 | 584.39 ± 1.6 | 560.89 ± 1.8 | – | –
5000 kPa | 676.85 ± 1.3 | 662.06 ± 1.3 | 646.5 ± 1.3 | 630.01 ± 1.4 | 612.33 ± 1.4 | 592.63 ± 1.5 | 571.39 ± 1.6 | 547.69 ± 1.8 | 519.39 ± 2
10000 kPa | 685.08 ± 1.3 | 671.42 ± 1.3 | 657.11 ± 1.3 | 642.19 ± 1.4 | 626.46 ± 1.4 | 609.39 ± 1.4 | 591.7 ± 1.5 | 572.99 ± 1.6 | 552.4 ± 1.8
15000 kPa | 692.61 ± 1.3 | 679.73 ± 1.3 | 666.38 ± 1.3 | 652.54 ± 1.3 | 638.17 ± 1.4 | 622.87 ± 1.4 | 607.19 ± 1.4 | 591.04 ± 1.5 | 573.78 ± 1.6
20000 kPa | 699.44 ± 1.3 | 687.19 ± 1.3 | 674.68 ± 1.3 | 661.65 ± 1.3 | 648.33 ± 1.4 | 634.17 ± 1.4 | 619.91 ± 1.4 | 605.41 ± 1.4 | 590.14 ± 1.5
25000 kPa | 705.75 ± 1.3 | 694.14 ± 1.3 | 682.06 ± 1.3 | 669.81 ± 1.3 | 657.3 ± 1.4 | 644.06 ± 1.4 | 630.86 ± 1.4 | 617.51 ± 1.4 | 603.55 ± 1.4
30000 kPa | 711.53 ± 1.3 | 700.39 ± 1.3 | 688.96 ± 1.3 | 677.2 ± 1.3 | 665.34 ± 1.4 | 652.87 ± 1.4 | 640.46 ± 1.4 | 627.99 ± 1.4 | 615.07 ± 1.4
35000 kPa | 717 ± 1.3 | 706.33 ± 1.3 | 695.3 ± 1.3 | 684.06 ± 1.4 | 672.7 ± 1.4 | 660.84 ± 1.4 | 649.09 ± 1.4 | 637.26 ± 1.4 | 625.15 ± 1.4
40000 kPa | 722.21 ± 1.3 | 711.79 ± 1.3 | 701.19 ± 1.4 | 690.37 ± 1.4 | 679.54 ± 1.4 | 668.11 ± 1.4 | 656.92 ± 1.4 | 645.67 ± 1.4 | 634.21 ± 1.4
50000 kPa | 731.68 ± 1.4 | 721.98 ± 1.4 | 711.96 ± 1.4 | 701.9 ± 1.4 | 691.67 ± 1.4 | 681.15 ± 1.4 | 670.8 ± 1.4 | 660.45 ± 1.4 | 649.98 ± 1.5
60000 kPa | 740.35 ± 1.4 | 731.17 ± 1.4 | 721.63 ± 1.4 | 712.04 ± 1.4 | 702.5 ± 1.4 | 692.63 ± 1.5 | 682.9 ± 1.5 | 673.27 ± 1.5 | 663.51 ± 1.5
70000 kPa | 748.4 ± 1.4 | 739.59 ± 1.4 | 730.55 ± 1.4 | 721.44 ± 1.5 | 712.29 ± 1.5 | 702.89 ± 1.5 | 693.76 ± 1.5 | 684.63 ± 1.5 | 675.48 ± 1.6

Source: the NIST ThermoML archive (doi:10.1016/j.jct.2011.04.011)
